Data: patent US20080255366A1, “Crystalline Trihydrate of Zoledronic Acid” (DR. REDDY'S LABORATORIES LIMITED, priority 2005, published 2008)

Test: solubility of crystalline zoledronic acid trihydrate compared with the monohydrate
Format: physicochemical
Conditions: relative to zoledronic acid monohydrate; solvent and temperature not stated

O=P(O)(O)C(O)(Cn1ccnc1)P(=O)(O)O [zoledronic acid trihydrate, (1-Hydroxy-2-imidazol-1-yl-phosphonoethyl) phosphonic acid]
solubility: substantially equal to that of the monohydrate
